Consider 77 molecules from the METLIN SMRT retention time set (Domingo-Almenara et al. 2019).

This data set is described as follows: gradient 5% acetonitrile 3 min, to 50% in 2 min, to 85% in 15 min, held 3 min, 100 µL/min. To be noted: column: Zorbax Extend-C18 2.1 x 50 mm; eluents: water / acetonitrile, 0.1% formic acid. The gist of the method:
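Standards, all pure, were combined into mixtures of ~100 molecules and run at 100 μL/min on a Zorbax Extend-C18 column (2.1 × 50 mm, 1.8 μm) with water and acetonitrile, each containing 0.1% formic acid. A coupled quadrupole time-of-flight mass spectrometer operated in positive and negative ionization mode. Retention time values come from computationally picked adduct peaks, each inspected manually.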
With `CN1CCCC1c1nc(C2CN(C(=O)Cn3c(=O)oc4ccccc43)C2)no1` (configuration not stated), the RP-LC retention time is 582 s.
Molecule `CC(C)S(=O)(=O)NC[C@H](C)c1ccc(NC(=O)c2cc(F)cc(F)c2)cc1` showed an RP-LC retention time of 1050 s.
The molecule `CCCS(=O)(=O)N1CC(=O)N(c2ccc(C)c(Cl)c2)C(C)(C(=O)NC2CCCCC2)C1` (configuration not stated) registered an RP-LC retention time of 979 s.
In turn, `Cc1ccc2c(c1)C1CC(C)(O2)N(c2cccc(C(=O)N3CCN(c4ccccn4)CC3)c2)C(=O)N1` (configuration not stated) had an RP-LC retention time of 625 s.
Molecule `Cc1ccc(-c2cc3c(=O)n(Cc4nc(-c5ccc6c(c5)OCO6)no4)ncn3n2)c(C)c1` gave an RP-LC retention time of 1170 s.
`COc1cccc(Cn2ccn3nc(-c4ccc5c(c4)OCO5)cc3c2=O)c1` gave an RP-LC retention time of 970 s.
With `CC(C)c1noc(-c2ccc(-n3cnc(C(=O)NC(C)c4ccc(F)cc4)c3)nc2)n1` (configuration not stated) the figure was 1020 s.
`O=C(CSc1nc2ccccc2o1)Nc1cc(C(F)(F)F)ccc1Cl` had an RP-LC retention time of 891 s.
With `CCOc1ccc(OCC)c(NC(=O)CCc2c(-c3ccc(Cl)cc3)nc3ccccn23)c1` the figure was 788 s; with `CCS(=O)(=O)N1CCC([C@@H](C)n2c(C)c(C(=O)NCc3c(OC)cc(C)[nH]c3=O)c3ccccc32)CC1`, 777 s; with `O=C(Nc1ccccc1Cl)N1CCC(n2c(C(F)(F)F)nc3cccnc32)CC1`, 912 s.
Take `COc1ccc(NC(=O)C2CCCN2S(=O)(=O)c2ccc(F)cc2)cc1` (configuration not stated): the RP-LC retention time turned out to be 844 s.
As to `Cc1nc(-c2ccc(-c3noc(CNC(=O)Cc4ccc(Cl)cc4)n3)cc2)cs1`, the RP-LC retention time was 990 s.
On to `CCN1C(=O)c2c(C(=O)NCCc3cccc(C)c3)ncn2CC1(C)C(=O)NC1CCCC1` (configuration not stated), for which the RP-LC retention time amounted to 819 s.
Then `Cc1oc2c(c1C(=O)N(C)C)CN(S(=O)(=O)Cc1ccccc1)CC2`, with 740 s.
Then `Cc1ccc(-c2noc(Cc3nnc(-c4ccc(F)cc4)o3)n2)cc1C`, with 1120 s.
With `CCCNC(=O)CN1C(=O)CC(c2ccc(Br)s2)=Nc2ccccc21` the figure was 913 s; with `Cc1ccccc1S(=O)(=O)N1CCC2(CC1)NCCN=C2NCc1ccc(Cl)cc1`, 741 s.
Molecule `CCCCCCCNC(=O)C1CCCN(c2ncc(-c3ccccc3)cn2)C1` (configuration not stated) had an RP-LC retention time of 1260 s.
Molecule `Cc1ccc(NC(=O)N2CCN(c3cc(C)nc(N4CCOCC4)n3)CC2)c(C)c1` displayed an RP-LC retention time of 666 s.
Molecule `COC[C@@H]1CN(S(=O)(=O)c2ccc(C(C)C)cc2)C[C@H]1c1ccccn1` had an RP-LC retention time of 895 s.
`CCOC(=O)c1c(C)[nH]c(CCC(=O)NCCc2cccs2)c1C` had an RP-LC retention time of 822 s.
In turn, `CCN(Cc1ccccc1)C(=O)Cn1cnc(C)cc1=O` returned an RP-LC retention time of 624 s.
For the molecule `COc1ccc(S(=O)(=O)Nc2cc(-c3cn4cccc(C)c4n3)ccc2C)cc1`, the RP-LC retention time worked out at 664 s.
Turning to `Cc1ccc(NC(=O)N2CCc3[nH]cnc3C2c2ccncc2)cc1C` (configuration not stated), the RP-LC retention time was 582 s.
`CN(C)C(=O)c1cn(C2CN(S(=O)(=O)c3cccc4nsnc34)C2)nn1` registered an RP-LC retention time of 657 s.
As for `COc1ccc(OC)c(S(=O)(=O)N2CCCC(C(=O)Nc3cccc(SC)c3)C2)c1` (configuration not stated), the RP-LC retention time was 972 s.
Then `Cc1csc(-c2ccc(CNC(=O)c3cc4ccccc4[nH]3)cc2)n1`, with 938 s.
Turning to `COc1cc(C(=O)N2CCC3(CC2)NC(=O)c2cc(F)ccc2N3C)cc(OC)c1OC`, the RP-LC retention time was 655 s.
Consider `CC(C)c1nnc2n1CCN(C(=O)COc1cccc(Cl)c1)C2`, for which the RP-LC retention time came to 667 s.
Then `Cc1oc(-c2ccc(Cl)cc2)nc1CN1CCCC(C(=O)NC2CCCCC2C)C1` (configuration not stated), with 835 s; and `O=C(C1CCN(c2ncnc3c2oc2ccccc23)CC1)N1CCN(c2ccccc2)CC1`, with 795 s.
In the case of `CCNC(=O)N1CCCC(c2cccc(C(=O)NCc3ccccc3C(F)(F)F)c2)C1` (configuration not stated), the RP-LC retention time worked out at 905 s.
The molecule `Cc1ccc(CNC(=O)c2ccc3c(c2)nc2n3CCN(C(C)C)C2=O)cc1C` returned an RP-LC retention time of 767 s.
`CC(C)c1noc(-c2cc(=O)n(CC(=O)NCc3ccccc3Cl)c3ccccc23)n1` had an RP-LC retention time of 988 s.
`CC(C)CNC(=O)c1ccc(-n2cc(CNC(=O)C3CC3)cn2)cc1` yielded an RP-LC retention time of 682 s.
In turn, `CCOc1ccc(NC(=O)N2CCN(CCn3c(C(C)C)nc4cccnc43)CC2)cc1` showed an RP-LC retention time of 610 s.
Regarding `Cc1nn(-c2ccccc2)c(C)c1S(=O)(=O)N1CCC(C(=O)N2CCOCC2)CC1`, the RP-LC retention time was 740 s.
With `Cn1c(CN(c2ccc(F)cc2)S(C)(=O)=O)nnc1SCc1nnc(-c2ccccc2)o1` the figure was 710 s; with `C=CCN1C(=O)COc2ccc(-c3nc(NC(=O)C4CCCCC4)sc3C)cc21`, 1080 s.
`CC(C)NC(=O)c1ccc(-c2nc3cc(NS(=O)(=O)c4ccc(F)c(F)c4)ccc3n2C)cc1` yielded an RP-LC retention time of 721 s.
As for `CC(C)CNC(=O)c1n[nH]c2c1CCCCCC2`, the RP-LC retention time amounted to 850 s.
In turn, `CCOc1cccc(-c2noc(Cn3ncn4nc(-c5cccs5)cc4c3=O)n2)c1` gave an RP-LC retention time of 1140 s.
On to `Cc1c(CC(=O)N2CCC(C(N)=O)CC2)c(=O)oc2c(C)c3occ(C(C)(C)C)c3cc12`, for which the RP-LC retention time turned out to be 821 s.
Take `O=c1c2cc(-c3ccc(Cl)cc3)nn2ccn1Cc1nc(-c2ccccn2)no1`: the RP-LC retention time was 894 s.
Take `CCCCOc1ccc(CNC(=O)C2CCCN(c3nccc(C)n3)C2)cc1` (configuration not stated): the RP-LC retention time was 930 s.
On to `Cc1cccc(NC(=O)CN2C(=O)C3CCCCN3c3ccc(C(=O)N4CCCC4)cc32)c1` (configuration not stated), for which the RP-LC retention time was determined as 853 s.
For the molecule `Cc1cc(C)cc(Nc2nc(C)cc(=O)n2CC(=O)Nc2cccc(Br)c2)c1`, the RP-LC retention time turned out to be 934 s.
For `COc1ccc(S(=O)(=O)N2[C@H]3CC[C@@H]2c2cnc(-c4ccccc4)nc2C3)cc1`, the RP-LC retention time came to 1030 s.
With `COCCCNC(=O)C1c2ccccc2C(=O)N1Cc1ccccc1` (configuration not stated), the RP-LC retention time was determined as 704 s.
On to `Cc1ccc(Cn2nc3c(S(=O)(=O)N4CCCCC4)cccn3c2=O)c(C)c1`, for which the RP-LC retention time was found to be 967 s.
In turn, `COc1ccc(NC(=O)c2noc3c2CC(C)CC3)c(OC)c1` (configuration not stated) had an RP-LC retention time of 1170 s.
`O=C(c1ccccc1F)N1CCC(CNS(=O)(=O)c2ccc(C(F)(F)F)cc2)CC1` gave an RP-LC retention time of 847 s.
Regarding `Cc1noc(C)c1CN1CCN(C(=O)c2ccc3ccccc3n2)CC1`, the RP-LC retention time was 588 s.
Regarding `Cc1ccc(-c2nnc(-c3nc(NCCN4CCCC4)c4ccccc4n3)o2)cc1`, the RP-LC retention time amounted to 713 s.
The molecule `CCOc1ccc(-c2nc(-c3ccc4oc(C)nc4c3)no2)cc1OCC` registered an RP-LC retention time of 1170 s.
As to `Cc1n[nH]c(C)c1S(=O)(=O)Nc1ccc(CC(=O)NCc2cccs2)cc1`, the RP-LC retention time was 640 s.
Molecule `Cn1cccc(C(=O)Nc2nc3c(s2)CN(S(=O)(=O)C2CC2)CC3)c1=O` showed an RP-LC retention time of 645 s.
As for `O=C(NCC(O)c1ccc(C(F)(F)F)cc1)C(=O)Nc1ccc(F)cc1F` (configuration not stated), the RP-LC retention time came to 880 s.
Then `CCc1cc(C(=O)N2CCCC2)nc2cc(-c3cccs3)nn12`, with 655 s; and `CCOC(=O)C1=C(CNC2CCCCC2)NC(=O)NC1c1ccc(C)cc1` (configuration not stated), with 662 s.
For `COc1ccc(-c2noc(Cc3nnc(-c4cccc(Br)c4)o3)n2)cc1`, the RP-LC retention time is 1100 s.
For the molecule `CCN1C(=O)CCc2cc(NS(=O)(=O)c3cccc4cccnc34)ccc21`, the RP-LC retention time came to 758 s.
`O=C(CN1C(=O)CCc2cc(Br)ccc21)N1CCN(c2ncccn2)CC1` displayed an RP-LC retention time of 786 s.
In turn, `Cc1cccc(OCC(=O)N2CC(CN(C)C)C3(CCOCC3)C2)c1` (configuration not stated) gave an RP-LC retention time of 598 s.
`CCN(CC)CCNC(=O)C1COc2ccc(OC)cc2C1` (configuration not stated) returned an RP-LC retention time of 602 s.
Consider `CCC(=O)N1CCc2cc(N3CC(C(=O)Nc4cc(C)ccc4C)CC3=O)ccc21` (configuration not stated), for which the RP-LC retention time turned out to be 790 s.
With `COc1ccccc1CN[C@@H]1CCCN[C@@H]1c1ccccc1` the figure was 598 s.
`Cn1c(=O)n(CCN2CCOCC2)c(=O)c2c1nc1n2CCCN1c1ccc(Br)cc1` registered an RP-LC retention time of 638 s.
The molecule `COc1ccccc1C(=O)N1CCCC1c1cc(C(C)C)on1` (configuration not stated) came in with an RP-LC retention time of 831 s.
On to `O=C(c1cn(-c2cc(-c3nc(C4CC4)no3)ccn2)cn1)N1CCOCC1`, for which the RP-LC retention time was 708 s.
The molecule `Cn1nc(-c2nnc(-c3ccccc3Cl)o2)c2c1CCN(C(=O)Nc1ccccc1)C2` displayed an RP-LC retention time of 849 s.
On to `CCOc1ccc(C2Cn3nnc(-c4nc(-c5cccc(Br)c5)no4)c3CO2)cc1` (configuration not stated), for which the RP-LC retention time was determined as 1310 s.
As for `Cc1cccc(Sc2nccnc2N2CCCC(C(=O)Nc3ccc(Br)cc3)C2)c1` (configuration not stated), the RP-LC retention time is 1290 s.
`CN(C)C(=O)c1ccc2c(c1)nc(CN(C)C(=O)Nc1cccc(Br)c1)n2C` returned an RP-LC retention time of 642 s.
Take `CCCC(=O)Nc1ccc(-c2nc(Cn3cccn3)c(C)o2)cc1`: the RP-LC retention time came to 759 s.
`O=C(NCCc1c[nH]c2ccccc12)C(=O)NCc1cccs1`: the RP-LC retention time was determined as 783 s.
